≈ marks a conversion by molar mass, not a printed value.
Key:
MA-104 cells [1] = test: 3-Day EGFP assay, toxicity control (no virus, NR fluorescence); format: cell-based, African green monkey; conditions: Chlorocebus sabaeus, MA104, 72 h, 3-Day EGFP fluorescent assay, uninfected MA-104 cells, read-out: IC50 (50% cell inhibitory concentration)
Procedure: (§1) Six 96-well plates were seeded with MA-104 cells to evaluate the NR and EGFP assays in parallel. A format was used allowing seven compounds to be tested per plate. Each compound was plated using four 10-fold dilutions in triplicate and starting the concentration at 1000 μg/mL for ribavirin (positive control), and ribamidine; 100 μg/mL for 2-thio-6-azauridine, 3-deazaguanosine, 1-(4-methoxybenzyloxy) adenosine, selenazofurin, and EICAR; 100 μM for CS-978, CS-1164, CS-1196, CS-1227, PSI-0194, PSI-5067, PSI-5095, PSI-5098, PSI-5452, PSI-5449, PSI-5741, PSI-5746, PSI-5747, PSI-5852, and PSI-5990; and 1 μg/mL for DAS181. Compounds that were reconstituted in DMSO were diluted down to working concentrations of 0.5% DMSO and less to eliminate cell toxicity due to the DMSO. Two of the replicates were infected with 3.9×10^3 PFU of rHPIV3-EGFP, at an MOI=0.1, while the remaining replicate served as a toxicity control with no virus added. Three of the plates were incubated at 37° C. for 3 days, after which, the toxicity and cell control cells were stained with NR following the same procedure described earlier. NR fluorescence was measured with the FMax® fluorometer, using the 544 nm excitation and 612 nm emission filters. The untreated virus control and treated, infected cells were washed with PBS, fresh PBS was added, and the fluorescence was measured with the FMax® fluorometer, using the 485 nm excitation and 538 nm emission filters. The other three plates were assayed using the traditional colorimetric NR assay. After incubation for 7 days at 37° C., the cells were stained with NR following the same procedure described earlier. For the NR assay, EC50 and 50% cell inhibitory concentrations (IC50) were calculated by linear regression from percents of untreated, uninfected cell and untreated, infected virus controls. For the EGFP assay, EC50 values were calculated by linear regression using percents of untreated, infected virus controls and IC50 values were also calculated by linear regression using percents of untreated, uninfected cell control. The EC50 and IC50 values for each compound for both assays were compared and statistically analyzed by unpaired, two-tailed Student's t-test. A selectivity index (SI) was calculated for each compound for each assay using the formula: SI=Mean IC50/Mean EC50. Compounds were sorted into positive, SI≧10, and negative, SI<10, categories for the combination of NR and EGFP assays. Using the NR assay as the gold standard, sensitivity, true positives/(true positives+false negatives), and specificity, true negatives/(true negatives+false positives), were calculated.

HPIV-3 WT = test: Antiviral sensitivity CPE assay (neutral red), HPIV-3 WT; format: cell-based, human parainfluenza type 3 virus; conditions: Human respirovirus 3, MA104, 168 h, MA-104 cells, MOI=0.1, 7 days, NR, mean ± SD of three replicates
Procedure: (§2) Ninety-six-well plates were seeded with MA-104 cells and infected with 3.9×10^3 PFU of either the HPIV-3 WT or rHPIV3-EGFP virus in duplicate at an MOI=0.1 in quadruplicate wells. The plates were incubated at 37° C. and on each day, including the day of infection, the cells were stained with 0.034% neutral red for 2 hours at 37° C., washed once with PBS, and the NR extracted with ethanol:Sörenson's citrate buffer for 30 min while rocking at room temperature. Absorbance, at 540 and 405 nm wavelengths, was read with an Opsys MR™ spectrophotometer and Revelation Quicklink software, version 4.24 (both from Dynex Technologies, Chantilly, Va.). The two curves was compared and statistically analyzed by ANOVA.
(§3) An antiviral CPE assay was used to evaluate the antiviral sensitivity profiles of the HPIV-3 WT and rHPIV3-EGFP viruses. Briefly, three compounds: ribavirin (positive control), 2-thio-6-azauridine, and DAS181, were plated in four 10-fold dilutions in five replicates on 96-well plates seeded with MA-104 cells using starting concentrations of 1000, 100, and 1 μg/mL, respectively. […] Fifty percent effective concentrations (EC50) were calculated by linear regression using percents of untreated, uninfected cell and untreated, infected virus controls. EC50 values were compared and statistically analyzed by the unpaired, two-tailed Student's t-test.

rHPIV3-EGFP [2] = test: Antiviral sensitivity CPE assay (neutral red), rHPIV3-EGFP; format: cell-based, human parainfluenza type 3 virus; conditions: MA104, 168 h
Procedure: as §2, §3

MA-104 cells [3] = test: 7-Day colorimetric neutral red uptake assay, toxicity control (no virus); format: cell-based, African green monkey; conditions: Chlorocebus sabaeus, MA104, 168 h, uninfected MA-104 cells, mean of three assays ± SD, read-out: IC50 (50% cell inhibitory concentration)
Procedure: as §2, §1

rHPIV3-EGFP [4] = test: 3-Day EGFP fluorescent antiviral assay; format: cell-based, human parainfluenza type 3 virus; conditions: for EC50: MA104, 72 h
Procedure: as §1

rHPIV3-EGFP [5] = test: 7-Day colorimetric neutral red uptake antiviral assay; format: cell-based, human parainfluenza type 3 virus; conditions: for SI: 7-Day colorimetric neutral red uptake assay, SI = Mean IC50/Mean EC50; for EC50: Homo sapiens, MA104, 168 h
Procedure: as §2, §1

O=c1cnn([C@@H]2O[C@H](CO)[C@@H](O)[C@H]2O)c(=S)[nH]1 [2-Thio-6-azauridine, 2-[(2R,3R,4S,5R)-3,4-Dihydroxy-5-(hydroxymethyl)oxolan-2-yl]-3-sulfanylidene-1,2,4-triazin-5-one]
IC50 (MA-104 cells [1]): > 100 µg/mL | EC50 (HPIV-3 WT): 1.1 ± 0.058 µg/mL (≈ 4.21 µM) | EC50 (rHPIV3-EGFP [2]): 0.63 ± 0.075 µg/mL (≈ 2.41 µM) | IC50 (MA-104 cells [3]): 17 ± 3.5 µg/mL | EC50 (rHPIV3-EGFP [4]): 0.89 ± 0.13 µg/mL | SI (rHPIV3-EGFP [4]): >110 | SI (rHPIV3-EGFP [5]): 28 | EC50 (rHPIV3-EGFP [5]): 0.6 ± 0.095 µg/mL

N=C(N)c1ncn([C@@H]2O[C@H](CO)[C@@H](O)[C@H]2O)n1 [Ribamidine, 1-[(2R,3R,4S,5R)-3,4-dihydroxy-5-(hydroxymethyl)oxolan-2-yl]-1,2,4-triazole-3-carboximidamide]
IC50 (MA-104 cells [1]): > 1000 µg/mL | IC50 (MA-104 cells [3]): 390 ± 20 µg/mL | EC50 (rHPIV3-EGFP [4]): 68 ± 2.6 µg/mL | SI (rHPIV3-EGFP [4]): >15 | activity category by SI in the EGFP assay (rHPIV3-EGFP [4]): moderately active (between 10 and 49 moderately active) | SI (rHPIV3-EGFP [5]): 7 | EC50 (rHPIV3-EGFP [5]): 57 ± 15 µg/mL

C#Cc1c(C(N)=O)ncn1[C@@H]1O[C@H](CO)[C@@H](O)[C@H]1O [EICAR, 1-[(2R,3R,4S,5R)-3,4-dihydroxy-5-(hydroxymethyl)oxolan-2-yl]-5-ethynylimidazole-4-carboxamide]
IC50 (MA-104 cells [1]): > 100 µg/mL | IC50 (MA-104 cells [3]): > 100 µg/mL | EC50 (rHPIV3-EGFP [4]): 0.35 µg/mL | SI (rHPIV3-EGFP [4]): >280 | SI (rHPIV3-EGFP [5]): >120 | EC50 (rHPIV3-EGFP [5]): 0.81 ± 0.061 µg/mL

NC(=O)c1ncn([C@@H]2O[C@H](CO)[C@@H](O)[C@H]2O)n1 [Ribavirin, 1-[(2R,3R,4S,5R)-3,4-dihydroxy-5-(hydroxymethyl)oxolan-2-yl]-1,2,4-triazole-3-carboxamide]
IC50 (MA-104 cells [1]): > 1000 µg/mL | EC50 (HPIV-3 WT): 35 ± 2.5 µg/mL (≈ 143 µM) | EC50 (rHPIV3-EGFP [2]): 19 ± 4.9 µg/mL (≈ 77.8 µM) | IC50 (MA-104 cells [3]): 230 ± 92 µg/mL | EC50 (rHPIV3-EGFP [4]): 31 µg/mL | SI (rHPIV3-EGFP [4]): >32 | SI (rHPIV3-EGFP [5]): 12 | EC50 (rHPIV3-EGFP [5]): 20 ± 3.6 µg/mL

NC(=O)c1c[se]c([C@@H]2O[C@H](CO)[C@@H](O)[C@H]2O)n1 [Selenazofurin, 2-[(2R,3R,4S,5R)-3,4-dihydroxy-5-(hydroxymethyl)oxolan-2-yl]-1,3-selenazole-4-carboxamide]
IC50 (MA-104 cells [1]): > 100 µg/mL | IC50 (MA-104 cells [3]): 34 ± 7.2 µg/mL | EC50 (rHPIV3-EGFP [4]): 3.5 ± 0.1 µg/mL | SI (rHPIV3-EGFP [4]): >29 | activity category by SI in the EGFP assay (rHPIV3-EGFP [4]): moderately active (between 10 and 49 moderately active) | SI (rHPIV3-EGFP [5]): 7 | EC50 (rHPIV3-EGFP [5]): 4.9 ± 1.4 µg/mL

COc1ccc(COn2cnc3c(ncn3[C@@H]3O[C@H](CO)[C@@H](O)[C@H]3O)c2=N)cc1 [1-(4-methoxybenzyloxy) adenosine]
IC50 (MA-104 cells [1]): 41 ± 2.5 µg/mL | IC50 (MA-104 cells [3]): 31 ± 1.2 µg/mL | EC50 (rHPIV3-EGFP [4]): > 41 µg/mL | SI (rHPIV3-EGFP [4]): 0 | SI (rHPIV3-EGFP [5]): 0 | EC50 (rHPIV3-EGFP [5]): > 31 µg/mL

Nc1cc2c(ncn2[C@@H]2O[C@H](CO)[C@@H](O)[C@H]2O)c(=O)[nH]1 [3-Deazaguanosine, 6-amino-1-[(2R,3R,4S,5R)-3,4-dihydroxy-5-(hydroxymethyl)oxolan-2-yl]-5H-imidazo[4,5-c]pyridin-4-one]
IC50 (MA-104 cells [1]): > 100 µg/mL | IC50 (MA-104 cells [3]): 34 ± 3.5 µg/mL | EC50 (rHPIV3-EGFP [4]): 21 µg/mL | SI (rHPIV3-EGFP [4]): >5 | SI (rHPIV3-EGFP [5]): <1 | EC50 (rHPIV3-EGFP [5]): > 31 µg/mL

From patent US20100316991A1, “HUMAN PARAINFLUENZA VIRUS TYPE 3 EXPRESSING THE ENHANCED GREEN FLUORESCENT PROTEIN FOR USE IN HIGH-THROUGHPUT ANTIVIRAL ASSAYS” (priority 2009, published 2010)
